Drawing on BindingDB's records for doi:10.1021/bi900236k (University of Thessaly, 2009), this text covers Ki for three compounds.

The target of the assay is T1, Poly(A)-specific ribonuclease PARN (Homo sapiens, UniProt O95453).
T1 sequence (O95453 whole entry): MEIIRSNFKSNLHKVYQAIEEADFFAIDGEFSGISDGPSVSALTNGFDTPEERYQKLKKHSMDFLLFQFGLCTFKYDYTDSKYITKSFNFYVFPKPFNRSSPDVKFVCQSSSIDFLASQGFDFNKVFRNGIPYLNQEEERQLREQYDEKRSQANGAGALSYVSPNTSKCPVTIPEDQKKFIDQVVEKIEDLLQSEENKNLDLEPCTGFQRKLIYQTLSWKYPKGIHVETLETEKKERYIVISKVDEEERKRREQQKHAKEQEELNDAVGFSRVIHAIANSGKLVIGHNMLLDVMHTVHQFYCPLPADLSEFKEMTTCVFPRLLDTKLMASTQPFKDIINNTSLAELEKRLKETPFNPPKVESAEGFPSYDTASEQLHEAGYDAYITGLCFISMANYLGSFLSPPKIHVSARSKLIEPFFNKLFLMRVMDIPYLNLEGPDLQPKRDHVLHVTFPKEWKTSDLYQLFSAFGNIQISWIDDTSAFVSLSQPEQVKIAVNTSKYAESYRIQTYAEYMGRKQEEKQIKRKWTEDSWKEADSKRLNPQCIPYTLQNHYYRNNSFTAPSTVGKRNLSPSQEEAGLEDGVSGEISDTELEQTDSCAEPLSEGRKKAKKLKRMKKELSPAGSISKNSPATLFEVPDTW
Description: PARN Activity Assay. The procedure:
The enzymatic activity was determined by the methylene blue assay.
As usually defined, the Ki is the dissociation constant of the complex between target and ligand, obtained from inhibition or displacement. Read a low Ki as higher affinity. Take `O=C(Nc1ncnc2c1ncn2C1OC(O)C(O)C(F)C1O)c1ccccc1` (stereo not drawn) [Nucleoside, A2]: the affinity, expressed as Ki, was 510 µM.
In turn, `O=C(Nc1ccn(C2OC(CO)C(O)C(F)C2O)c(=O)n1)c1ccccc1` (stereo not drawn) [Nucleoside, A6] returned a Ki of 210 µM.
For `Nc1ccn(C2OC(CO)C(O)C(F)C2O)c(=O)n1` (stereo not drawn) [Nucleoside, C6] the value was 645 µM.
